# Results taken from EPA's ToxValDB 9.5.
# Test system: Mus musculus
# Conditions: oral
# [1] = short-term, duration: 21 days, gavage, M, BALB/c, spleen: lymphocyte proliferation (ConA)
# [2] = short-term, duration: 21 days, gavage, M, BALB/c, spleen: spleen CD3+ cells + spleen: spleen CD3+CD4+ cells + spleen: spleen CD3+CD8+ cells + spleen: spleen: relative weight
# [3] = short-term, duration: 28 days, gavage, F, B6C3F1, IgM antibody-producing cells (SRBC)
# [4] = short-term, duration: 28 days, gavage, F, B6C3F1, peritoneal cavity: IL-6 levels (+LPS in vivo) + peritoneal cavity: TNF-alpha levels (+LPS in vitro) + spleen: spleen: relative weight
# [5] = short-term, duration: 28 days, gavage, F, B6C3F1, serum lysozyme activity + spleen: splenic CD4-/CD8+ + spleen: splenic CD4+/CD8-
# [6] = short-term, duration: 28 days, gavage, F, B6C3F1, spleen (B cells): IL-6 levels (+LPS)
# [7] = short-term, duration: 28 days, gavage, F, B6C3F1, thymus: thymic CD4+/CD8+
# [8] = short-term, duration: 28 days, gavage, M, B6C3F1, IgM antibody-producing cells (SRBC)
# [9] = short-term, duration: 28 days, gavage, M, B6C3F1, spleen: Splenic NK cell activity
# [10] = short-term, duration: 28 days, gavage, M, B6C3F1, spleen: splenic CD4-/CD8- + spleen: splenic CD4-/CD8+ + spleen: splenic CD4+/CD8- + spleen: splenic CD4+/CD8+
# [11] = subchronic, duration: 30 days, gavage, M, C57BL/6, spleen: spleen: relative weight
# [12] = subchronic, duration: 60 days, gavage, M, C57BL/6, % of sub G1 population (splenocytes) + spleen: apoptotic cells (splenocytes) + spleen: viability in murine splenocytes + thymus: apoptotic …
# [13] = subchronic, duration: 60 days, gavage, M, C57BL/6, % of sub G1 population (thymocytes) + body weight change + spleen: necrotic cells (splenocytes) + spleen: spleen cellularity + spleen: …
# [14] = subchronic, duration: 60 days, gavage, M, C57BL/6, IgM antibody titer (SRBC) + spleen: IL-4 levels
# [15] = subchronic, duration: 60 days, gavage, M, C57BL/6, blood serum: IL-1 beta (+LPS in vivo) + blood serum: IL-1 beta levels + blood serum: IL-6 levels + peritoneal cavity: IL-1 beta levels (+LPS…
# [16] = subchronic, duration: 60 days, gavage, M, C57BL/6, blood serum: IL-6 levels (+LPS in vivo) + blood serum: TNF-alpha levels (+LPS in vivo) + peritoneal cavity: IL-6 levels (+LPS in vivo) + …
# [17] = subchronic, duration: 60 days, gavage, M, C57BL/6, body weight change + food intake from day 60 to 61 + IgE antibody titer (SRBC) + IgG antibody titer (SRBC) + IgG1 antibody titer (SRBC) + …
# [18] = subchronic, duration: 60 days, gavage, M, C57BL/6, body weight change + peritoneal cavity: IL-6 levels + peritoneal cavity: IL-6 levels (+LPS in vitro) + peritoneal cavity: TNF-alpha levels…
# [19] = subchronic, duration: 60 days, gavage, M, C57BL/6, liver: liver index
# [20] = subchronic, duration: 60 days, gavage, M, C57BL/6, peritoneal cavity: IL-1 beta levels
# [21] = subchronic, duration: 60 days, gavage, M, C57BL/6, serum corticosterone + spleen: lymphocyte proliferation (LPS) + spleen: spleen B220+ Cells + spleen: spleen CD8+ cells + thymus: thymus CD4…
# [22] = subchronic, duration: 60 days, gavage, M, C57BL/6, spleen: lymphocyte proliferation (ConA) + thymus: thymus DN (CD4-/CD8-)
structure (smiles),measurement,setting,value
O=S(=O)(O)C(F)(F)C(F)(F)C(F)(F)C(F)(F)C(F)(F)C(F)(F)C(F)(F)C(F)(F)F [Perfluorooctanesulfonic acid],NOEL,"short-term, duration: 21 days, gavage, F, B6C3F1, body weight + body weight during influenza A infection (day 41, 20 days after infection) + spleen: spleen: relative weight + Survival time (…",0.025 mg/kg-day
same,LOEL,"short-term, duration: 21 days, gavage, F, B6C3F1, body weight during influenza A infection (day 30, 9 days after infection)",0.005 mg/kg-day
same,LOEL,[1],5 mg/kg-day
same,NOEL,[1],2.5 mg/kg-day
same,LOEL,"short-term, duration: 21 days, gavage, M, BALB/c, spleen: spleen CD3+ cells (cells normalized to control) + spleen: spleen CD3+CD4+ cells (cells normalized to control) + spleen: spleen CD3+…",2.5 mg/kg-day
same,NOEL,"short-term, duration: 21 days, gavage, M, BALB/c, spleen: spleen CD3+ cells + spleen: spleen CD3+CD4+ cells (cells normalized to control) + spleen: spleen CD3+CD8+ cells (cells normalized to…",10 mg/kg-day
same,LOEL,[2],10 mg/kg-day
same,NOEL,[2],5 mg/kg-day
same,LOEL,"short-term, duration: 28 days, diet, M, B6C3F1, corticosterone",0.000156%
same,NOEL,"short-term, duration: 28 days, diet, M, B6C3F1, haemagglutination + IgG antibody level (SRBC 1:200) + IgM antibody-secreting cells (SRBC) + IgM antibody level (SRBC 1:200) + IgM antibody …",0.000156%
same,NOEL,"short-term, duration: 28 days, diet, M, C57BL/6, liver: IFN-gamma levels + liver: IFN-gamma levels (+Con A in vivo) + liver: IL-4 levels (+Con A in vivo) + liver: TNF-alpha levels + liver: …",0.0001%
same,NOEL,"short-term, duration: 28 days, gavage, F, B6C3F1, IL-4 levels (+PMA) + spleen (CD4+ T cells): IL-5 levels (+PMA) + spleen (CD4+ T cells): IL-6 levels (+anti-CD3) + spleen (CD4+ T cells): IL-…",0.0331 mg/kg-day
same,LOEL (TAD),[3],0.5 mg/kg-day
same,NOEL (TAD),[3],0.1 mg/kg-day
same,LOEL,"short-term, duration: 28 days, gavage, F, B6C3F1, blood serum: IL-6 levels (+LPS in vivo) + blood serum: TNF-alpha levels (+LPS in vivo)",0.0331 mg/kg-day
same,NOEL,"short-term, duration: 28 days, gavage, F, B6C3F1, eosinophils + lymphocytes + monocytes + neutrophils + platelet count + RBC + spleen: cells expressing CD19-/CD21+ + spleen: cells expressing…",0.166 mg/kg-day
same,NOEL,"short-term, duration: 28 days, gavage, F, B6C3F1, peritoneal cavity: IL-6 levels (+LPS in vitro) + peritoneal cavity: IL-6 levels (+LPS in vivo) + peritoneal cavity: TNF-alpha levels (+LPS …",9.93 mg/kg-day
same,LOEL,[4],9.93 mg/kg-day
same,NOEL,[4],0.0993 mg/kg-day
same,LOEL (TAD),[5],0.1 mg/kg-day
same,NOEL (TAD),[5],0.05 mg/kg-day
same,LOEL,[6],0.0331 mg/kg-day
same,NOEL,[6],0.00331 mg/kg-day
same,LOEL,"short-term, duration: 28 days, gavage, F, B6C3F1, spleen (B cells): IL-6 levels (+anti-CD40)",0.00331 mg/kg-day
same,NOEL,"short-term, duration: 28 days, gavage, F, B6C3F1, spleen: IL-6 secreting cells (# splenocytes)",0.0331 mg/kg-day
same,LOEL,"short-term, duration: 28 days, gavage, F, B6C3F1, spleen: IL-6 secreting cells (# splenocytes) + spleen: IL-6 secreting cells (% splenocytes)",0.0993 mg/kg-day
same,NOEL (TAD),"short-term, duration: 28 days, gavage, F, B6C3F1, spleen: lymphocyte proliferation (ConA) + spleen: lymphocyte proliferation (LPS) + spleen: spleen cellularity + spleen: spleen: relative …",5 mg/kg-day
same,LOEL (TAD),[7],1 mg/kg-day
same,NOEL (TAD),[7],0.5 mg/kg-day
same,LOEL (TAD),[8],0.05 mg/kg-day
same,NOEL (TAD),[8],0.005 mg/kg-day
same,NOEL (TAD),"short-term, duration: 28 days, gavage, M, B6C3F1, serum lysozyme activity + spleen: lymphocyte proliferation (ConA) + spleen: lymphocyte proliferation (LPS) + spleen: spleen cellularity + …",5 mg/kg-day
same,LOEL (TAD),[9],0.5 mg/kg-day
same,NOEL (TAD),[9],0.1 mg/kg-day
same,LOEL (TAD),[10],0.1 mg/kg-day
same,NOEL (TAD),[10],0.05 mg/kg-day
same,LOEL (TAD),[11],300 mg/kg-day
same,NOEL (TAD),[11],150 mg/kg-day
same,LOEL,[12],0.0833 mg/kg-day
same,NOEL,[12],0.0167 mg/kg-day
same,LOEL,[13],0.833 mg/kg-day
same,NOEL,[13],0.0833 mg/kg-day
same,NOEL,"subchronic, duration: 60 days, gavage, M, C57BL/6, DTH response + IgG2a antibody titer (SRBC) + kidney: kidney index + serum corticosterone",0.833 mg/kg-day
same,LOEL,[14],0.0833 mg/kg-day
same,NOEL,[14],0.0167 mg/kg-day
same,LOEL,"subchronic, duration: 60 days, gavage, M, C57BL/6, IgM antibody-secreting cells (SRBC) + Splenic NK cell activity",0.0833 mg/kg-day
same,NOEL,"subchronic, duration: 60 days, gavage, M, C57BL/6, IgM antibody-secreting cells (SRBC) + spleen: spleen DP (CD4+/CD8+) + Splenic NK cell activity",0.00833 mg/kg-day
same,LOEL,[15],0.833 mg/kg-day
same,NOEL,[15],0.417 mg/kg-day
same,LOEL,[16],2.08 mg/kg-day
same,NOEL,[16],0.833 mg/kg-day
same,NOEL,"subchronic, duration: 60 days, gavage, M, C57BL/6, blood serum: TNF-alpha levels",2.08 mg/kg-day
same,LOEL,[17],0.833 mg/kg-day
same,NOEL,[17],0.417 mg/kg-day
same,LOEL,[18],0.417 mg/kg-day
same,NOEL,[18],0.0833 mg/kg-day
same,LOEL,[19],0.417 mg/kg-day
same,NOEL,[19],0.0833 mg/kg-day
same,LOEL,"subchronic, duration: 60 days, gavage, M, C57BL/6, peritoneal cavity macrophages",0.0167 mg/kg-day
same,NOEL,"subchronic, duration: 60 days, gavage, M, C57BL/6, peritoneal cavity macrophages + spleen: IL-1 beta mRNA",0.0083 mg/kg-day
same,LOEL,[20],0.0833 mg/kg-day
same,NOEL,[20],0.0167 mg/kg-day
same,LOEL,[21],0.833 mg/kg-day
same,NOEL,[21],0.417 mg/kg-day
same,LOEL,[22],2.08 mg/kg-day
same,NOEL,[22],0.833 mg/kg-day
same,LOEL,"subchronic, duration: 60 days, gavage, M, C57BL/6, spleen: spleen CD4+ cells + spleen: spleen cellularity + spleen: spleen DN (CD4-/CD8-) + spleen: spleen DP (CD4+/CD8+) + spleen: spleen: …",0.417 mg/kg-day
same,NOEL,"subchronic, duration: 60 days, gavage, M, C57BL/6, spleen: spleen CD4+ cells + spleen: spleen cellularity + spleen: spleen DN (CD4-/CD8-) + spleen: spleen: relative weight + thymus: thymus …",0.0833 mg/kg-day
